According to PMC8635778 (Angewandte Chemie (International ed. in English), 2020):

Columns and labels:
[1] = tested on: papillary RCC cell line (ACHN) orthotopic xenograft; experiment: fluorescence imaging of orthotopic papillary RCC xenograft; type: in vivo, mice; details: cancerous vs normal kidney tissue
[2] = mouse, in vivo, iv

amount found in the feces [2]: 85.3 % ID | amount in feces, times higher than ICG-PEG45 [2]: 29.8 times
Structure (SMILES): CC1(C)C(/C=C/C=C/C=C/C=C2\N(CCCCS(=O)(=O)O)c3ccc4ccccc4c3C2(C)C)=[N+](CCCCS(=O)(=O)[O-])c2ccc3ccccc3c21 [ICG, indocyanine green]
hyperfluorescent imaging of RCC in the kidneys (in words) [1]: failed to hyperfluorescently light up RCC
